Test results: ChEMBL document CHEMBL3526039, “Electrophysiological characterization of the polyspecific organic cation transporter plasma membrane monoamine transporter” (Drug Metab Dispos, 2012)

Assays:
[1] = target: T1, Equilibrative nucleoside transporter 4 (Homo sapiens, UniProt Q7RTT9); test: Induction of human PMAT activity expressed in Xenopus laevis oocytes assessed as induction of inward current at 2.5 mM in NaCl buffer at pH 7.5 by two-microelectrode voltage-clamp method; format: cell-based; conditions: pH 7.5, 2500 µM
T1 sequence (Q7RTT9 whole entry): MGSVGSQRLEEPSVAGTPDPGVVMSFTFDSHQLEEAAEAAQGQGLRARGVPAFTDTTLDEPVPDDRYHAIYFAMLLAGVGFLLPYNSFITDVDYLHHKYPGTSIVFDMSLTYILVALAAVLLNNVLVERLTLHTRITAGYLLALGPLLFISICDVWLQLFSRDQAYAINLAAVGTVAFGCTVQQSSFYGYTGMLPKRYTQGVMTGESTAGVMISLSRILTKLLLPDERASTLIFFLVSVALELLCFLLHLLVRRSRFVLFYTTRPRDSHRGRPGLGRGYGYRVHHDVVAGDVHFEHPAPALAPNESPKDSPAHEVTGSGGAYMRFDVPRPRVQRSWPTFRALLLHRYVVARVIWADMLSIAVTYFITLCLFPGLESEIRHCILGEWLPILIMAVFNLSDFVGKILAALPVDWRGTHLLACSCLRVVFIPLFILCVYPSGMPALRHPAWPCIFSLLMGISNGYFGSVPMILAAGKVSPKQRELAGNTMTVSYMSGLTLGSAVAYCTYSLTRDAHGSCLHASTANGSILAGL

[2] = target: T1, Equilibrative nucleoside transporter 4; test: Induction of human PMAT activity expressed in Xenopus laevis oocytes assessed as induction of inward current at 2.5 mM in NaCl buffer at pH 6 by two-microelectrode voltage-clamp method; format: cell-based; conditions: pH 6, 2500 µM
[3] = target: T2, PMAT (equilibrative nucleoside transporter 4) (Homo sapiens, UniProt Q7RTT9); test: Increase of human PMAT-mediated drug uptake expressed in Xenopus laevis oocytes in NaCl buffer at pH 6 at 100 uM after 60 mins relative to control; conditions: Xenopus laevis oocytes expressing human PMAT
T2 sequence (Q7RTT9 whole entry): T1 sequence (Q7RTT9 whole entry)

[4] = target: T2, PMAT (equilibrative nucleoside transporter 4); test: in vitro; conditions: not told, pH 6
[5] = target: T2, PMAT (equilibrative nucleoside transporter 4); test: in vitro; conditions: not told, pH 6; remark: listed apart in the source

SMILES | Activity [1] [nanoampere] | Activity [2] [nanoampere] | uptake ratio at 1 h, 100 µM [3] | Km [4] [mM] | Km [5] [mM]
CN1CC=C(c2ccccc2)CC1 | -5.67 | -62.7 | – | – | –
NC12CC3CC(CC(C3)C1)C2 [AMANTADINE] | -7.26 | -21.2 | – | – | –
CN1CCC[C@H]1c1cccnc1 [NICOTINE] | -6.3 | -75.7 | – | – | –

Continued, values first:

Activity [1] [nanoampere] | Activity [2] [nanoampere] | uptake ratio at 1 h, 100 µM [3] | Km [4] [mM] | Km [5] [mM] | SMILES
-30.5 | -110 | 2 | 10 | 10 | NCCc1c[nH]cn1 [HISTAMINE]
-2.02 | -38 | – | – | – | CN(C)C(=N)N=C(N)N [METFORMIN]
-0.627 | -11.7 | – | – | – | CC[N+](CC)(CC)CC [TETRYLAMMONIUM]
